Data on two compounds can be found in PMC8222276 (Communications Biology, 2021).

The structures appear in SMILES notation.

One experiment relates to HUVECs. The experiment in a line: cell proliferation (72 h) of HUVECs. The format is cell-based, human. The following applies: HUVEC. The method, then: Data are analysed using a three-parameter non-linear regression curve or the operational model of receptor agonism. g–h Signalling bias plots were calculated as ∆Log(τ/KA) (g) or ∆∆Log(τ/KA) (h) for each agonist and for each signalling pathway. […] Solid arrows indicate known pathways. Dashed arrows represent possible pathways.
Both endothelial cell lines and HCMs were seeded at a density of 2500 cells/well in a clear flat bottom 96-well plate (Corning, UK) and incubated at 37 °C in 5% CO2. After 24 h, cells were exposed to test compounds or vehicle, in complete endothelial cell growth media (HUVECs) or myocyte growth media (HCMs). Cells were incubated for a further 72 h at 37 °C in 5% CO2. After 72 h incubation, 5 μl of Cell Counting Kit–8 (CCK-8, Sigma, UK) was added to each well and cells were then incubated for another 2 h at 37 °C in 5% CO2 and in the dark[61]. The absorbance of each well was measured using a Mithras LB940 microplate reader with an excitation of 450 nm. The absorbance is directly proportional to the number of viable cells. Cell proliferation was calculated as a percentage of number of cells treated with vehicle alone.
(§1) All sample sizes were determined, and data analysed, in accordance with the guidelines described by Curtis M et al.[65]. All experiments were appropriately controlled using ‘system pathway’ agonists. If any of these pathway controls generated inappropriate responses, then the entire data set was removed from analysis. […] Data analysis for cAMP accumulation, Ca^2+i mobilisation, NO accumulation, pERK1/2 activation, and cell proliferation assays were performed in GraphPad Prism 8.4 (GraphPad Software, San Diego). Data were fitted to obtain concentration–response curves using either the three-parameter logistic equation using to obtain values of Emax and pEC50 or the operational model of agonism. Statistical differences were analysed using one-way ANOVA followed by Dunnett’s post-hoc (for comparisons amongst more than two groups) or unpaired Student’s t test with Welch’s correction (for comparison between two groups). To account for the day-to-day variation experienced from the cultured cells, we used the maximal level of cAMP accumulation from cells in response to 100 μM forskolin stimulation was used as a reference, 10 μM ionomycin for Ca^2+i assays, 10 μM phorbol 12-myristate 13-acetate (PMA) for pERK1/2 activation, 10 μM acetylcholine for NO production and 10 μM VEGF for cell proliferation. […] Where appropriate the operational model for receptor agonism[27] was used to obtain efficacy (τ) and equilibrium disassociation constant (KA) values. In both cases, this normalisation removes the variation due to differences in days but retains the variance for control values. The means of individual experiments were combined to generate the curves shown. Having obtained values for τ and KA these were then used to quantify signalling bias as the change in Log(τ/KA)[19],[28]. Error for this composite measure was propagated by applying Eq. 1.1 PooledSEM=(SEMA)^2+(SEMB)^2 Where, SEMA and SEMB are the standard error of measurement A and B.

The target in experiment [1] is T1, AM1 receptor (CLR-RAMP2) in HUAECs (Homo sapiens, UniProt O60895+Q16602).
T1 construct: host or cells: primary HUAECs
The experiment is described as follows: ERK1/2 phosphorylation in HUAECs. The format is cell-based. On the procedure:
Primary cells were grown in 6 well plates, on the day of the experiment media was replaced with serum free media 4 h prior to cell harvesting. Tyrpsin-EDTA was used to dissociate the cells and they were collected by centrifugation, counted and re-suspended HBSS/BSA (0.1%). Ligands were also diluted in HBSS/BSA. Cells were then plated on 384 well plates in 8 μl aliquots at a density of 20,000 cells/well. Next, ligands were added (4 μl) for 5 min stimulation at room temperature. Cells were then lysed as per to the manufacturer’s instructions with 4 μl of lysis buffer (Cisbio phosphor-ERK1/2 cellular assay kit, Invitrogen, UK) for 30 min shaking at room temperature. The 2 specific antibodies; were pre-mixed in a 1:1 ratio. 4 μl of this was added to each well and the plate incubated for a further 2 h.
as §1, with “B. […]” for “B.”

For experiment [2], the target named is T2, AM1 receptor (CLR-RAMP2) in HUVECs (Homo sapiens, UniProt O60895+Q16602).
T2 construct: HUVECs specifically express the AM1 receptor alone; host or cells: primary HUVECs
The experiment is described as follows: signalling bias analysis (operational model) in HUVECs. The following applies: HUVEC; ΔΔLog(τ/KA), reference AM and cAMP. The method, then: All sample sizes were determined, and data analysed, in accordance with the guidelines described by Curtis M et al.[65]. All experiments were appropriately controlled using ‘system pathway’ agonists. If any of these pathway controls generated inappropriate responses, then the entire data set was removed from analysis. […] Data analysis for cAMP accumulation, Ca^2+i mobilisation, NO accumulation, pERK1/2 activation, and cell proliferation assays were performed in GraphPad Prism 8.4 (GraphPad Software, San Diego). Data were fitted to obtain concentration–response curves using either the three-parameter logistic equation using to obtain values of Emax and pEC50 or the operational model of agonism. Statistical differences were analysed using one-way ANOVA followed by Dunnett’s post-hoc (for comparisons amongst more than two groups) or unpaired Student’s t test with Welch’s correction (for comparison between two groups). […] Having obtained values for τ and KA these were then used to quantify signalling bias as the change in Log(τ/KA)[19],[28]. […]

The target in experiment [3] is T3, CGRP receptor (CLR-RAMP1) in human cardiomyocytes (HCMs) (Homo sapiens, UniProt O60894+Q16602).
T3 construct: primary human cardiomyocytes (HCMs) since these cells only expressed CLR and RAMP1; host or cells: primary human cardiomyocytes (HCMs)
The experiment in a line: total NO production in HCMs. The format is cell-based. The following applies: HCM, 15 min, relative to 10 μM isoproterenol, mean ± SEM. The method, then:
Data are analysed using a three-parameter non-linear regression curve or the operational model of receptor agonism. g, h Signalling bias plots were calculated as ∆Log(τ/KA) (g) or ∆∆Log(τ/KA) (h) for each agonist and for each signalling pathway. […] All data represent mean ± SEM for n repeats.
Endothelial cells and HCMs were cultured as above. 24 h prior to assay cells were plated on Costar 96-well black clear bottom plates at 40,000 cells/well. The assay was performed according to the manufacturer’s protocol. Briefly, cells pre-incubated with NO dye and assay buffer 1 (Fluorometric Nitric Oxide Assay Kit, Abcam, UK) for 30 min at 37 °C in 5% CO2. […] Stain and ligand solution was removed, assay buffer II was added, and wells were read immediately. The absorbance was measured using a Tecan T200 (Thermo Fisher Scientific UK) reader with an excitation/emission of 540/590 nm. […]
All sample sizes were determined, and data analysed, in accordance with the guidelines described by Curtis M et al.[65]. […] Statistical differences were analysed using one-way ANOVA followed by Dunnett’s post-hoc (for comparisons amongst more than two groups) or unpaired Student’s t test with Welch’s correction (for comparison between two groups). […] Having obtained values for τ and KA these were then used to quantify signalling bias as the change in Log(τ/KA)[19],[28]. […]

[4] abbreviates: proliferation, operational model, mean ± SEM.
The mark [5] stands for this setting: pERK1/2, HUAEC, operational model, mean ± SEM.

T1 sequence (Q16602 23-461): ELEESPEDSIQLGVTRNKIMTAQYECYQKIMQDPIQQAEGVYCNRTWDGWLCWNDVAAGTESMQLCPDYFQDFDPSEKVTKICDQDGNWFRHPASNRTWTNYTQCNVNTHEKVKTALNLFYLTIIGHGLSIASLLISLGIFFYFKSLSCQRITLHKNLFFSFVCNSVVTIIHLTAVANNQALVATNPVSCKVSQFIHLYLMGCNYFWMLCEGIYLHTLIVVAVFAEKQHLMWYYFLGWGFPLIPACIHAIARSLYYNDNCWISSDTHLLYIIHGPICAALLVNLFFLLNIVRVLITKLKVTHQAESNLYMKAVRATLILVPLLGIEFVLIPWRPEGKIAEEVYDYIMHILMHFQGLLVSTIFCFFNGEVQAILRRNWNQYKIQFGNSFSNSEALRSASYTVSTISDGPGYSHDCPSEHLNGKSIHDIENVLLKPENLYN
T1 sequence (O60895 43-175): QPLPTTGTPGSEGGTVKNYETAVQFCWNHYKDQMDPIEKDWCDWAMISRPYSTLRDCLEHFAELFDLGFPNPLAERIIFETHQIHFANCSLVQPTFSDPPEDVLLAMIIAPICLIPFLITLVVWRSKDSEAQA
T2 sequence (Q16602 23-461): as the sequence (Q16602 23-461) above
T2 sequence (O60895 43-175): as the sequence (O60895 43-175) above
T3 sequence (Q16602 23-461): as the sequence (Q16602 23-461) above
T3 sequence (O60894 27-148): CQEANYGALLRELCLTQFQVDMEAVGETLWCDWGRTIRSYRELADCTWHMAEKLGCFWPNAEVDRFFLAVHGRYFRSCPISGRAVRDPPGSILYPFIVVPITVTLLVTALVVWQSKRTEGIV

Broadly, the pEC50 is −log10 of the EC50, conventionally taken in molar units. Low readings indicate a large EC50, high ones a small EC50. Regarding `CSCC[C@H](NC(=O)[C@H](CC(C)C)NC(=O)[C@H](CCC(N)=O)NC(=O)[C@H](Cc1c[nH]c2ccccc12)NC(=O)[C@H](CC(C)C)NC(=O)[C@H](CCCNC(=N)N)NC(=O)[C@H](Cc1c[nH]cn1)NC(=O)[C@H](CO)NC(=O)[C@H](CC(C)C)NC(=O)[C@H](CC(N)=O)NC(=O)[C@H](CCC(N)=O)NC(=O)[C@@H](NC(=O)[C@H](CCC(N)=O)NC(=O)[C@@H]1CSSC[C@H](NC(=O)CNC(=O)[C@@H](NC(=O)[C@H](CCCNC(=N)N)NC(=O)[C@H](CC(C)C)NC(=O)[C@H](CC(C)C)NC(=O)[C@H](CCC(N)=O)NC(=O)[C@H](C)NC(=O)[C@H](CCC(N)=O)NC(=O)[C@@H](N)[C@@H](C)O)C(C)C)C(=O)N[C@@H](C(C)C)C(=O)N[C@@H](CC(C)C)C(=O)NCC(=O)N[C@@H]([C@@H](C)O)C(=O)N1)C(C)C)C(=O)NCC(=O)N1CCC[C@H]1C(=O)N[C@@H](C)C(=O)NCC(=O)N[C@@H](CCCNC(=N)N)C(=O)N[C@@H](CCC(N)=O)C(=O)N[C@@H](CC(=O)O)C(=O)N[C@@H](CO)C(=O)N[C@@H](C)C(=O)N1CCC[C@H]1C(=O)N[C@H](C(=O)N[C@@H](CC(=O)O)C(=O)N1CCC[C@H]1C(=O)N[C@@H](CO)C(=O)N[C@@H](CO)C(=O)N1CCC[C@H]1C(=O)N[C@@H](Cc1c[nH]cn1)C(=O)N[C@@H](CO)C(=O)N[C@@H](Cc1ccc(O)cc1)C(N)=O)C(C)C` [AM2, adrenomedullin 2], the “Transducer coefficient Log(τ/KA)” value in the experiment with HUVECs (Growth, calculated from Table S1) is 5.74±0.92; in experiment [1] (pERK1/2, HUAEC, calculated from Table S1), 4.76±0.35. The Emax with HUVECs (proliferation, 72 h, CCK-8, mean ± SEM) was 103.74±1.43%; in experiment [1], 17.6 ± 2.44%. This compound also registered a pEC50 in the experiment on HUVECs (proliferation, 72 h, mean ± SEM of 3-6 data sets) of 7.06±0.9. In addition, the logτ with HUVECs (setting [4]) is -1.29±0.20; in experiment [1] (setting [5]) it was -0.67±0.12. Moreover, the pKA was determined as 7.03±0.90 in the experiment with HUVECs (setting [4]) and 5.43±0.33 in experiment [1] (setting [5]). Also, the agonist bias entry in experiment [2] was “biased towards Ca^2+i mobilisation and NO production”.
In the case of `CC[C@H](C)[C@H](NC(=O)[C@H](CCC(N)=O)NC(=O)[C@H](Cc1c[nH]cn1)NC(=O)[C@H](C)NC(=O)[C@H](CC(C)C)NC(=O)[C@H](CCCCN)NC(=O)[C@H](CCC(N)=O)NC(=O)[C@@H](NC(=O)[C@@H](NC(=O)[C@@H]1CSSC[C@H](NC(=O)CNC(=O)[C@H](Cc2ccccc2)NC(=O)[C@H](CO)NC(=O)[C@H](CCCNC(=N)N)NC(=O)[C@H](CC(C)C)NC(=O)CNC(=O)[C@H](CCC(N)=O)NC(=O)[C@H](Cc2ccccc2)NC(=O)[C@H](CC(N)=O)NC(=O)[C@H](CC(N)=O)NC(=O)[C@H](CCSC)NC(=O)[C@H](CO)NC(=O)[C@H](CCC(N)=O)NC(=O)[C@H](CCCNC(=N)N)NC(=O)[C@@H](N)Cc2ccc(O)cc2)C(=O)N[C@@H](CCCNC(=N)N)C(=O)N[C@@H](Cc2ccccc2)C(=O)NCC(=O)N[C@@H]([C@@H](C)O)C(=O)N1)[C@@H](C)O)C(C)C)C(=O)N[C@@H](Cc1ccc(O)cc1)C(=O)N[C@@H](CCC(N)=O)C(=O)N[C@@H](Cc1ccccc1)C(=O)N[C@H](C(=O)N[C@@H](CC(=O)O)C(=O)N[C@@H](CCCCN)C(=O)N[C@@H](CC(=O)O)C(=O)N[C@@H](CCCCN)C(=O)N[C@@H](CC(=O)O)C(=O)N[C@@H](CC(N)=O)C(=O)N[C@H](C(=O)N[C@@H](C)C(=O)N1CCC[C@H]1C(=O)N[C@@H](CCCNC(=N)N)C(=O)N[C@@H](CO)C(=O)N[C@@H](CCCCN)C(=O)N[C@H](C(=O)N[C@@H](CO)C(=O)N1CCC[C@H]1C(=O)N[C@@H](CCC(N)=O)C(=O)NCC(=O)N[C@@H](Cc1ccc(O)cc1)C(N)=O)[C@@H](C)CC)C(C)C)[C@@H](C)O` [AM, adrenomedullin], in experiment [3], the Emax came out at 47 ± 5.85%.
